One data set concerns Kluyveromyces marxianus. Kind of data set: Antifungal activity against Candida pseudotropicalis assessed as fungal growth inhibition at 100 ug/ml by micro-dilution method relative to control. The class given is functional. Particulars: read-out: GI. A general note: Broth dilution looks for growth in wells or tubes with falling amounts of substance.
The test system of the next data set is HEK293. Kind of data set: Cytotoxicity against human HEK293 cells assessed as effect on cell viability measured after 72 hrs by MTS assay. The class given is cell-based. To be noted: hek293, 72 h. (Tetrazolium assays rely on reduction of a dye to a coloured formazan, in cell work by metabolically active cells.)
The next data set deals with Sclerotinia sclerotiorum. Kind of data set: Antifungal activity against Sclerotinia sclerotiorum assessed as fungal growth inhibition at 100 ug/ml by micro-dilution method relative to control. The class given is functional. Particulars: read-out: GI.
The next data set deals with Paecilomyces variotii. Kind of data set: Antifungal activity against Paecilomyces variotii assessed as fungal growth inhibition at 100 ug/ml by micro-dilution method relative to control. The class given is functional. To be noted: read-out: GI.
The test system of data set [1] is Cladosporium cladosporioides. Kind of data set: Antifungal activity against Cladosporium cladosporioides assessed as fungal growth inhibition at 100 ug/ml by micro-dilution method relative to control. To be noted: read-out: GI. The class given is functional.
The test system of a further data set is Candida tropicalis. The data set can be described thus: Antifungal activity against Candida tropicalis assessed as fungal growth inhibition at 100 ug/ml by micro-dilution method relative to control. The class given is functional. Particulars: read-out: GI.
In the next data set the test system is Alternaria alternata. Kind of data set: Antifungal activity against Alternaria alternata assessed as fungal growth inhibition at 100 ug/ml by micro-dilution method relative to control. The class given is functional. Particulars: read-out: GI.
A further data set has as its system Penicillium ochrochloron. The data set can be described thus: Antifungal activity against Penicillium ochrochloron assessed as fungal growth inhibition at 100 ug/ml by micro-dilution method relative to control. The class given is functional. To be noted: read-out: GI.
Another data set has as its system Geotrichum candidum. The data set can be described thus: Antifungal activity against Geotrichum candidum assessed as fungal growth inhibition at 100 ug/ml by micro-dilution method relative to control. The class given is functional. Particulars: read-out: GI.
The test system of a further data set is Pichia kudriavzevii. Kind of data set: Antifungal activity against Candida krusei assessed as fungal growth inhibition at 100 ug/ml by micro-dilution method relative to control. The class given is functional. Particulars: read-out: GI.
In another data set the test system is Fusarium solani. The data set can be described thus: Antifungal activity against Fusarium solani assessed as fungal growth inhibition at 100 ug/ml by micro-dilution method relative to control. The class given is functional. To be noted: read-out: GI.
The subject of the next data set is Botrytis cinerea. Kind of data set: Antifungal activity against Botrytis cinerea assessed as fungal growth inhibition at 100 ug/ml by micro-dilution method relative to control. The class given is functional. To be noted: read-out: GI.
A further data set has as its system Aspergillus oryzae. The data set can be described thus: Antifungal activity against Aspergillus oryzae assessed as fungal growth inhibition at 100 ug/ml by micro-dilution method relative to control. The class given is functional. Particulars: read-out: GI.

The structures appear in SMILES notation.

For the molecule `O=C1CC[C@@H](C(=O)N/N=C/c2c(F)c(F)c(F)c(F)c2F)N1`, the inhibition of growth at 100 µg/mL turned out to be 0% in the data set on Kluyveromyces marxianus; 5% with Sclerotinia sclerotiorum; 0% in the data set on Paecilomyces variotii; 11% in [1]; 0% with Candida tropicalis; 0% in the data set with Alternaria alternata. Besides, the inhibition of growth at 100 µg/mL with Penicillium ochrochloron is 21%; in the data set with Geotrichum candidum, 36%; with Pichia kudriavzevii, 0%; with Fusarium solani it was 40%; in the data set on Botrytis cinerea it was 17%; in the data set with Aspergillus oryzae it was 4%. In addition, in the data set on HEK293, the Activity entry is listed as “Non-Toxic”.

As for `O=C1CC[C@@H](C(=O)N/N=C/c2cc(F)ccc2F)N1`, the inhibition of growth at 100 µg/mL in the data set with Kluyveromyces marxianus came to 18%; in the data set with Sclerotinia sclerotiorum it was 0%; in the data set on Paecilomyces variotii, 37%; in [1], 34%; in the data set on Candida tropicalis, 0%; in the data set on Alternaria alternata, 0%. The inhibition of growth at 100 µg/mL with Penicillium ochrochloron is 26%; in the data set with Geotrichum candidum it was 62%; in the data set with Pichia kudriavzevii, 47%; in the data set with Fusarium solani, 58%; with Botrytis cinerea, 6%; in the data set with Aspergillus oryzae, 13%. For the same molecule, the Activity entry in the data set with HEK293 is “Non-Toxic”.

On to `O=C1CCC(NNc2ccccn2)N1` (racemic), for which the inhibition of growth at 100 µg/mL was 0% with Kluyveromyces marxianus; 0% in the data set on Sclerotinia sclerotiorum; 11% in the data set on Paecilomyces variotii; 0% in data set [1]; 8% in the data set with Candida tropicalis; 0% in the data set with Alternaria alternata. Moreover, the inhibition of growth at 100 µg/mL with Penicillium ochrochloron was found to be 21%; in the data set on Geotrichum candidum, 32%; in the data set on Pichia kudriavzevii, 0%; in the data set with Fusarium solani, 64%; in the data set with Botrytis cinerea, 0%; in the data set on Aspergillus oryzae, 23%. Further, the Activity result with HEK293 is reported as “Non-Toxic”.

Regarding `CC1(C)C2CC=C(/C=N/NC(=O)[C@@H]3CCC(=O)N3)C1C2` (stereo not given in full), the inhibition of growth at 100 µg/mL turned out to be 18% with Kluyveromyces marxianus; 0% with Sclerotinia sclerotiorum; 39% with Paecilomyces variotii; 0% in [1]; 0% with Candida tropicalis; 0% in the data set on Alternaria alternata. Moreover, the inhibition of growth at 100 µg/mL stood at 0% with Penicillium ochrochloron; 0% in the data set with Geotrichum candidum; 0% in the data set on Pichia kudriavzevii; 0% in the data set with Fusarium solani; 0% in the data set with Botrytis cinerea; 4% in the data set on Aspergillus oryzae. In the data set on HEK293, the Activity entry is given as “Non-Toxic”.

Consider `COc1cc(/C=N/NC(=O)[C@@H]2CCC(=O)N2)ccc1O`, for which the inhibition of growth at 100 µg/mL amounted to 0% in the data set on Kluyveromyces marxianus; 0% with Sclerotinia sclerotiorum; 22% with Paecilomyces variotii; 0% in [1]; 0% in the data set on Candida tropicalis; 20% with Alternaria alternata. For the same molecule, the inhibition of growth at 100 µg/mL was 0% with Penicillium ochrochloron; 0% in the data set on Geotrichum candidum; 37% in the data set on Pichia kudriavzevii; 0% with Fusarium solani; 0% in the data set on Botrytis cinerea; 0% in the data set with Aspergillus oryzae. Also, the Activity result in the data set on HEK293 is “Non-Toxic”.

Consider `CC(C)=CCC/C(C)=C/C=N/NC(=O)[C@@H]1CCC(=O)N1`, for which the inhibition of growth at 100 µg/mL in the data set with Kluyveromyces marxianus came out at 8%; in the data set on Sclerotinia sclerotiorum it was 15%; with Paecilomyces variotii, 0%; in [1] it was 27%; with Candida tropicalis it was 38%; in the data set with Alternaria alternata it was 0%. In addition, the inhibition of growth at 100 µg/mL was 0% in the data set on Penicillium ochrochloron; 5% with Geotrichum candidum; 0% in the data set on Pichia kudriavzevii; 43% in the data set with Fusarium solani; 27% in the data set with Botrytis cinerea; 17% in the data set on Aspergillus oryzae. Also, in the data set with HEK293, the Activity entry was “Non-Toxic”.

On to `O=C1CC[C@@H](C(=O)N/N=C/c2cccc(C(F)(F)F)c2Cl)N1`, for which the inhibition of growth at 100 µg/mL amounted to 18% with Kluyveromyces marxianus; 0% in the data set with Sclerotinia sclerotiorum; 19% with Paecilomyces variotii; 36% in data set [1]; 0% in the data set with Candida tropicalis; 12% with Alternaria alternata. In addition, the inhibition of growth at 100 µg/mL stood at 44% in the data set with Penicillium ochrochloron; 62% with Geotrichum candidum; 47% with Pichia kudriavzevii; 0% with Fusarium solani; 0% in the data set with Botrytis cinerea; 4% with Aspergillus oryzae. Also, in the data set with HEK293, the Activity entry is “Non-Toxic”.

As to `COc1ccc(/C=N/NC(=O)[C@@H]2CCC(=O)N2)cc1`, the inhibition of growth at 100 µg/mL came out at 40% in the data set with Kluyveromyces marxianus; 38% in the data set on Sclerotinia sclerotiorum; 36% in the data set with Paecilomyces variotii; 35% in data set [1]; 49% with Candida tropicalis; 3% in the data set with Alternaria alternata. For the same molecule, the inhibition of growth at 100 µg/mL in the data set with Penicillium ochrochloron is 23%; in the data set on Geotrichum candidum, 25%; in the data set on Pichia kudriavzevii, 40%; with Fusarium solani, 0%; in the data set on Botrytis cinerea it was 0%; with Aspergillus oryzae, 24%. For the same molecule, the Activity entry with HEK293 is recorded as “Non-Toxic”.

`C=C(C)C1CC=C(/C=N/NC(=O)[C@@H]2CCC(=O)N2)CC1` (stereo not given in full): the inhibition of growth at 100 µg/mL stood at 0% in the data set on Kluyveromyces marxianus; 0% in the data set with Sclerotinia sclerotiorum; 31% with Paecilomyces variotii; 56% in [1]; 0% with Candida tropicalis; 0% in the data set on Alternaria alternata. Also, the inhibition of growth at 100 µg/mL is 45% with Penicillium ochrochloron; 39% in the data set with Geotrichum candidum; 18% with Pichia kudriavzevii; 0% in the data set with Fusarium solani; 13% in the data set with Botrytis cinerea; 0% in the data set with Aspergillus oryzae. Besides, the Activity result with HEK293 is “Non-Toxic”.

`N#Cc1ccc(/C=N/NC(=O)[C@@H]2CCC(=O)N2)cc1`: the inhibition of growth at 100 µg/mL was determined as 0% in the data set on Kluyveromyces marxianus; 0% in the data set with Sclerotinia sclerotiorum; 33% in the data set with Paecilomyces variotii; 0% in data set [1]; 0% with Candida tropicalis; 42% in the data set with Alternaria alternata. Further, the inhibition of growth at 100 µg/mL came to 20% in the data set on Penicillium ochrochloron; 0% in the data set on Geotrichum candidum; 10% in the data set on Pichia kudriavzevii; 0% with Fusarium solani; 0% in the data set with Botrytis cinerea; 0% with Aspergillus oryzae. Further, the Activity entry with HEK293 is reported as “Non-Toxic”.

For the origin of these results see ChEMBL document CHEMBL4622870, “Design, synthesis and evaluation of hydrazine and acyl hydrazone derivatives of 5-pyrrolidin-2-one as antifungal agents” (Bioorg Med Chem Lett, 2020).
